Experimental data reported in patent publication US20210353593A1 (Chinook Therapeutics, Inc., priority 2019, published 2021).

Test system: canonical signaling pathways in kidney tissue of g-ddY mice
Assay: Ingenuity Pathway Analysis (IPA) canonical pathways, g-ddY mouse kidney RNA-seq
Assay type: in vivo

## CCCCN(CCCC)C(=O)CN1C[C@H](c2ccc3c(c2)OCO3)[C@@H](C(=O)O)[C@@H]1c1ccc(OC)cc1 [Atrasentan, (2R,3R,4S)-4-(1,3-benzodioxol-5-yl)-1-[2-(dibutylamino)-2-oxoethyl]-2-(4-methoxyphenyl)pyrrolidine-3-carboxylic acid]
10 mg/kg/day
  Acute Myeloid Leukemia Signaling z-score: −0.258
  Acute Phase Response Signaling z-score: −1.177
  Apelin Cardiac Fibroblast Signaling Pathway z-score: 1.134
  CXCR4 Signaling z-score: 0
  Cardiac Hypertrophy Signaling (Enhanced) z-score: 0.361
  Folate Polyglutamylation z-score: −1
  GM-CSF Signaling z-score: −0.243
  GP6 Signaling Pathway z-score: 0
  Glioblastoma Multiforme Signaling z-score: 1
  Glioma Signaling z-score: 0.5
  Gluconeogenesis I z-score: 0.905
  Glutathione Redox Reactions I z-score: −0.302
  Glycolysis I z-score: 0.577
  Gα12/13 Signaling z-score: −1.279
  Gαg Signaling z-score: 1
  HGF Signaling z-score: −0.688
  Hepatic Fibrosis Signaling Pathway z-score: −0.25
  IGF-1 Signaling z-score: 0.243
  IL-8 Signaling z-score: 0.365
  Integrin Signaling z-score: −0.928
  LPS/IL-1 Mediated Inhibition of RXR Function z-score: 0.535
  Lymphotoxin β Receptor Signaling z-score: −1.508
  Macropinocytosis Signaling z-score: 0.277
  NF-κB Activation by Viruses z-score: 0
  NF-κB Signaling z-score: 0.507
  NRF2-mediated Oxidative Stress Response z-score: 0.471
  Oxidative Phosphorylation z-score: −0.309
  PDGF Signaling z-score: −0.5
  PEDF Signaling z-score: 0
  PI3K Signaling in B Lymphocytes z-score: 0.426
  PI3K/AKT Signaling z-score: 0.447
  PTEN Signaling z-score: −0.426
  Paxillin Signaling z-score: −1
  Relaxin Signaling z-score: −0.535
  STAT3 Pathway z-score: −0.218
  Sirtuin Signaling Pathway z-score: 0.849
  Small Cell Lung Cancer Signaling z-score: −0.905
  Sperm Motility z-score: 1.213
  Sphingosine-1-phosphate Signaling z-score: −0.218
  TCA Cycle II (Eukalyotic) z-score: 0.277
  TNFR2 Signaling z-score: −1.89
  Thrombin Signaling z-score: 1.3
  Toll-like Receptor Signaling z-score: −0.302
  Tryptophan Degradation III (Eukalyotic) z-score: 0.378
  Xenobiotic Metabolism General Signaling Pathway z-score: −0.577
20 mg/kg/day
  Acute Myeloid Leukemia Signaling z-score: −0.853
  Acute Phase Response Signaling z-score: −1.298
  Apelin Cardiac Fibroblast Signaling Pathway z-score: 0.577
  CXCR4 Signaling z-score: 0.333
  Cardiac Hypertrophy Signaling (Enhanced) z-score: −0.396
  Folate Polyglutamylation z-score: 0.447
  GM-CSF Signaling z-score: −1.46
  GP6 Signaling Pathway z-score: −1.715
  Glioblastoma Multiforme Signaling z-score: −0.16
  Glioma Signaling z-score: −0.816
  Gluconeogenesis I z-score: −0.302
  Glutathione Redox Reactions I z-score: −0.277
  Glycolysis I z-score: 0
  Gα12/13 Signaling z-score: −0.707
  Gαg Signaling z-score: −0.822
  HGF Signaling z-score: 0
  Hepatic Fibrosis Signaling Pathway z-score: −3.181
  IGF-1 Signaling z-score: −0.408
  IL-8 Signaling z-score: −0.905
  Integrin Signaling z-score: −1.342
  LPS/IL-1 Mediated Inhibition of RXR Function z-score: 0.626
  Lymphotoxin β Receptor Signaling z-score: −1.291
  Macropinocytosis Signaling z-score: 0.243
  NF-κB Activation by Viruses z-score: −0.816
  NF-κB Signaling z-score: −1.313
  NRF2-mediated Oxidative Stress Response z-score: −0.392
  Oxidative Phosphorylation z-score: −0.283
  PDGF Signaling z-score: −2.353
  PEDF Signaling z-score: −1.043
  PI3K Signaling in B Lymphocytes z-score: −1.333
  PI3K/AKT Signaling z-score: −0.18
  PTEN Signaling z-score: 1.029
  Paxillin Signaling z-score: −0.626
  Relaxin Signaling z-score: −0.853
  STAT3 Pathway z-score: 0.192
  Sirtuin Signaling Pathway z-score: 0.62
  Small Cell Lung Cancer Signaling z-score: −1.886
  Sperm Motility z-score: 1.633
  Sphingosine-1-phosphate Signaling z-score: −0.73
  TCA Cycle II (Eukalyotic) z-score: −0.535
  TNFR2 Signaling z-score: 0
  Thrombin Signaling z-score: −0.926
  Toll-like Receptor Signaling z-score: −0.258
  Tryptophan Degradation III (Eukalyotic) z-score: −1.265
  Xenobiotic Metabolism General Signaling Pathway z-score: −1.581
30 mg/kg/day
  Acute Myeloid Leukemia Signaling z-score: −1.134
  Acute Phase Response Signaling z-score: −2.832
  Apelin Cardiac Fibroblast Signaling Pathway z-score: 1.732
  CXCR4 Signaling z-score: −2.214
  Cardiac Hypertrophy Signaling (Enhanced) z-score: −6.236
  Folate Polyglutamylation z-score: 1.342
  GM-CSF Signaling z-score: −1.225
  GP6 Signaling Pathway z-score: −4.938
  Glioblastoma Multiforme Signaling z-score: −3.464
  Glioma Signaling z-score: −2.353
  Gluconeogenesis I z-score: 3.464
  Glutathione Redox Reactions I z-score: 2.496
  Glycolysis I z-score: 3.051
  Gα12/13 Signaling z-score: −0.949
  Gαg Signaling z-score: −2.16
  HGF Signaling z-score: −3.182
  Hepatic Fibrosis Signaling Pathway z-score: −5.058
  IGF-1 Signaling z-score: −1.633
  IL-6 signaling: reduced
  IL-8 Signaling z-score: −2.828
  Integrin Signaling z-score: −3.311
  LPS/IL-1 Mediated Inhibition of RXR Function z-score: −2.746
  Lymphotoxin β Receptor Signaling z-score: −2.183
  Macropinocytosis Signaling z-score: −2.828
  NF-κB Activation by Viruses z-score: −3.9
  NF-κB Signaling z-score: −4.636
  NF-κB signaling: reduced
  NRF2-mediated Oxidative Stress Response z-score: 1.3
  Oxidative Phosphorylation z-score: 7.02
  PDGF Signaling z-score: −3.528
  PDGF signaling: reduced
  PEDF Signaling z-score: −3.922
  PI3K Signaling in B Lymphocytes z-score: −4.041
  PI3K/AKT Signaling z-score: −1.947
  PTEN Signaling z-score: 2.214
  Paxillin Signaling z-score: −2.268
  Relaxin Signaling z-score: −2.449
  STAT3 Pathway z-score: −2.556
  Sirtuin Signaling Pathway z-score: −1.254
  Small Cell Lung Cancer Signaling z-score: −2.236
  Sperm Motility z-score: −2.263
  Sphingosine-1-phosphate Signaling z-score: −1.808
  TCA Cycle II (Eukalyotic) z-score: 3.207
  TNFR2 Signaling z-score: −1.291
  Thrombin Signaling z-score: −2.828
  Toll-like Receptor Signaling z-score: −2.982
  Tryptophan Degradation III (Eukalyotic) z-score: 3.742
  Xenobiotic Metabolism General Signaling Pathway z-score: −0.152
